# System: DMS114 SCLC xenograft
# Excerpt: • (i) Compound Formulation: Compound 1 was formulated as a wet-milled nanosuspension (24 hr milling in 2.5% w/v polyvinyl pyrrolidone (PVP), 0.5% w/v Macrogol 15 Hydroxystearate (Kolliphor HS15) aqueous, with <1 μm particle-size distribution (PSD; ˜650 nm median diameter (d50)) for oral gavage administration. • (ii) Cell Implant, Compound Dosing and Tissue Collection: Immune deficient female mice with a severe combined immunodeficiency (SCID) mutation in a non-obese diabetic background (NOD SCID; 6 to 8 week old; NOD.CB17-Prkdcscid/NCrCrl from Charles River Laboratories) received a subcutaneous (SC) implant of 7.5×10^6 DMS114 cells (in 1:1 matrigel (Trevigen, Cultrex BME Path Clear®, Lot #: 30625F14), total volume 200 μl) into the right flank. Tumor volume and body weight were measured twice a week. On Day 20 post implant, 64 mice were randomized, based on tumor size at a geometric mean (geomean) of about 160 mm^3, into 6 groups corresponding to dose (Table 1). Compounds were administered at 10 ml/kg by oral gavage (Compound 1; BID ( 7/17 hours apart)) or intraperitoneal injection (cisplatin), respectively. The cisplatin dosing schedule was once a week for 3 weeks (Q7Dx3) and started 7 days after the randomization and treatment initiation with Compound 1.
# On Day 55, study groups 1, 2, 3 and 4 were terminated (Table 1). Tumor (snap frozen) samples were collected at 4 hours post last dose for pharmacodynamic (PD) analysis. […] Tumor samples from groups 5 and 6 were collected 3 hours post last dose depending on available tumor sizes. All procedures performed on these animals were in accordance with regulations and established guidelines and were reviewed and approved by Pfizer's Institutional Animal Care and Use Committee. • (iii) Data Interpretation: For each experiment, calculations were performed and graphs created in Microsoft Excel and GraphPad Prism version 7.02 respectively. The tumor volume was calculated as 0.5×length×width^2. Tumor growth inhibition (TGI) was determined by the formula: % TGI=[1−(Vtx−Vt0/Vcx−Vc0)]×100, where Vc, Vt are the geometric means of control and treated groups. X=day X on study and 0=initial day of dosing. ELISA Assay: • (i) Histone Extraction: Histone extraction was performed using the EpiQuick Histone Extraction Kit (Epigentek OP0006). Frozen tumor samples were cut and homogenized using cold mortar and pestle on dry-ice. The homogenized mixture was transferred to a 1.5 mL tube in 1× Pre-Lysis Buffer (200 mg/mL) containing phenylmethylsulfonyl fluoride (PMSF). Samples were gently mixed, incubated on ice for 15 minutes, and spun down at 3,000 rpm for 5 minutes at 4° C. The tissue pellet was resuspended in 3 volumes (approximately 200 μL per 100 mg of tissue) of lysis buffer from the Histone Extraction Kit, incubated on ice for 30 minutes, and spun down at 12,000 rpm for 5 minutes at 4° C. Balance-DTT buffer was prepared by adding DTT Solution to balance buffer at a 1:500 ratio. The supernatant (containing acid soluble proteins) was transferred to a new 1.5 mL tube and 0.3 volumes of Balance-dithiothreitol (DTT) buffer from the Histone Extraction Kit were immediately added to each sample. The tumor lysate was briefly sonicated for 4 cycles (30 seconds on and 30 seconds off) at high intensity using the Bioruptor Plus (Diagenode #601020001). Extracts were aliquoted and stored at −20° C. (short term) or −80° C. (long term). Protein concentration was quantified using the Coomassie Plus (Bradford) Assay Kit (Thermo #23236). • (ii) H3K27Me3 and Me2 ELISA Assay: Histone extracts were diluted to a final concentration of 400 ng (or 800 ng) in 100 μL of coating buffer (phosphate buffered saline (PBS) containing 0.05% bovine serum albumin (BSA)).
smiles,measurement,setting,value
"N.N.[Cl][Pt][Cl] [cisplatin, reference compound]",TGI by Day 55,"Compound 1 100 mg/kg BID PO, cisplatin 4 mg/kg IP Q7Dx3, alone or combined",51%
same,tumors regressed or progressed compared to the starting tumor burden,"Day 55, Compound 1 100 mg/kg BID, cisplatin 4 mg/kg Q7Dx3",all tumors had progressed
same,tumor regression sustained after cisplatin discontinuation,"post Day 55, Compound 1 maintenance dosing in combination arm, no further treatment in cisplatin arm",progressed
same,"survival benefit, Log-rank test (Mantel-Cox)",survival cut-off at 500 mm^3 tumor burden,did not reach the P<0.05 significance level
same,median survival,"survival cut-off at 500 mm^3 tumor burden, Compound 1 100 mg/kg BID, cisplatin 4 mg/kg Q7Dx3",37.5 days

# Reference: patent US11529344B2, “EZH2 inhibitor combination therapies” (Pfizer Inc., priority 2017, dated 2022)
